Values of other authors as cited in patent publication US11647710B2, “Method for preparation of soybean leaf having high content of isoflavone derivative in dark condition and soybean leaf having high content of isoflavone derivative prepared thereby” (INDUSTRY-ACADEMIC COOPERATION FOUNDATION GYEONGSANG …, priority 2019, dated 2023).

Target: ER-beta (estrogen receptor beta) (Rattus norvegicus, UniProt Q62986)
Details: Endocrinology 1997, 863; cited from earlier work

Chain of ER-beta (estrogen receptor beta) (Q62986 whole entry): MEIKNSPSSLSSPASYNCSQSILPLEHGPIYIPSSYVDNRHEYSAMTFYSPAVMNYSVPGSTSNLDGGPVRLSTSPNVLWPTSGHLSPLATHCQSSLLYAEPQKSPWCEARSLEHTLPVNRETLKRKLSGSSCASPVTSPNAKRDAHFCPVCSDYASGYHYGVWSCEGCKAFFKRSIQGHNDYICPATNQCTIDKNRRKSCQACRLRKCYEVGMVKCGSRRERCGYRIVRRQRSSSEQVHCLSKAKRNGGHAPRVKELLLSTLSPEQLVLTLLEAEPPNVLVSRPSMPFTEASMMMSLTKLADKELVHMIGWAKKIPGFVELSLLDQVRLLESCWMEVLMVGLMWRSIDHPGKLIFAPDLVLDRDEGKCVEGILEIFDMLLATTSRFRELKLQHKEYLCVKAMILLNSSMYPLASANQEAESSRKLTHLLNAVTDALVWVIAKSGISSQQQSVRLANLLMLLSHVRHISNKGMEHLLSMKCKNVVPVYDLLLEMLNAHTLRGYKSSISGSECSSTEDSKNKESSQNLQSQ

O=c1c(-c2ccc(O)cc2)coc2cc(O)ccc12 [daidzein]
affinity for ER-beta: high affinity
